From ChEMBL document CHEMBL1158466, “Discovery of novel 2-aminobenzamide inhibitors of heat shock protein 90 as potent, selective and orally active antitumor agents” (J Med Chem, 2009)
In brackets after ≈: the same amount, converted by molar mass. Each block holds one compound with its values, some of them ahead of it.

Tests used:
MDA-MB-231 = experiment: Antiproliferative activity against human MDA-MB-231 cells after 72 to 144 hrs by cyquant DNA dye method; assay type: functional, cell-based
SK-MEL-5 = experiment: Antiproliferative activity against human SK-MEL-5 cells after 72 to 144 hrs by cyquant DNA dye method; assay type: functional, cell-based
K562 = experiment: Antiproliferative activity against human K562 cells after 72 to 144 hrs by cyquant DNA dye method; assay type: functional, cell-based
Heat shock protein HSP90 [1] = target: T1, Heat shock protein HSP90 (Homo sapiens, UniProt P07900+P08238); assay type: cell-based; conditions: au565
A-375 = experiment: Antiproliferative activity against human A375 cells after 72 to 144 hrs by cyquant DNA dye method; assay type: functional, cell-based
NCI-H460 = experiment: Antiproliferative activity against human NCI-H460 cells after 72 to 144 hrs by cyquant DNA dye method; assay type: functional, cell-based
[2] = Binding affinity to pig spleen Hsp90 ATPase pocket by Bradford assay; assay type: tissue-based, Sus scrofa
SW-620 = experiment: Antiproliferative activity against human SW620 cells after 72 to 144 hrs by cyquant DNA dye method; assay type: functional, cell-based
MCF7 = experiment: Antiproliferative activity against human MCF7 cells after 72 to 144 hrs by cyquant DNA dye method; assay type: functional, cell-based
HCT-15 = experiment: Antiproliferative activity against human HCT15 cells after 72 to 144 hrs by cyquant DNA dye method; assay type: functional, cell-based
PC-3 = experiment: Antiproliferative activity against human PC3 cells after 72 to 144 hrs by cyquant DNA dye method; assay type: functional, cell-based
[3] = Oral bioavailability in rat; assay type: ADME, organism-based; conditions: in vivo
HT-29 [4] = experiment: Antiproliferative activity against human HT-29 cells after 72 to 144 hrs by cyquant DNA dye method; assay type: functional, cell-based
Heat shock protein HSP90 [5] = target: T1, Heat shock protein HSP90; conditions: au565
Description: Inhibition of Hsp90 in human AU565 cells assessed as pERK degradation after 24 hrs by high content screening

Heat shock protein HSP90 [6] = target: T1, Heat shock protein HSP90; conditions: a-375
Description: Inhibition of Hsp90 in human A375 cells assessed as Hsp70 induction after 24 hrs by high content screening

LNCaP = experiment: Antiproliferative activity against human LNCAP cells after 72 to 144 hrs by cyquant DNA dye method; assay type: functional, cell-based
Heat shock protein HSP90 [7] = target: T1, Heat shock protein HSP90; conditions: a-375; remark: listed apart in the source
Description: Inhibition of Hsp90 in human A375 cells assessed as pS6 degradation after 24 hrs by high content screening

HT-29 [8] = experiment: Antitumor activity against human HT-29 cells xenografted nu/nu mouse assessed as tumor growth delay at 50 mg/kg, po administered 3 times a week for 3 weeks; assay type: functional
[9] = Tmax in Swiss Webster mouse at 25 mg/kg, po; assay type: ADME, organism-based; design: dose 25 mg/kg, route oral; conditions: in vivo
HT-29 [10] = experiment: Antitumor activity against human HT-29 cells xenografted nu/nu mouse assessed as tumor growth delay at 25 mg/kg, po administered 3 times a week for 3 weeks; assay type: functional
[11] = Half life in Swiss Webster mouse at 10 mg/kg, iv; assay type: ADME, organism-based; design: dose 10 mg/kg, route intravenous; conditions: in vivo
HT-29 [12] = experiment: Antitumor activity against human HT-29 cells xenografted nu/nu mouse assessed as median time for tumor to reach end point at 50 mg/kg, po administered 3 times a week for 3 weeks; assay type: functional
[13] = Apparent volume of distribution with respect to bioavailability in Swiss Webster mouse at 25 mg/kg, po; assay type: ADME, organism-based; conditions: in vivo, read-out: Vc/F
[14] = Tmax in Swiss Webster mouse at 10 mg/kg, iv; assay type: ADME, organism-based; design: dose 10 mg/kg, route intravenous; conditions: in vivo
[15] = Half life in Swiss Webster mouse at 50 mg/kg, po; assay type: ADME, organism-based; design: dose 50 mg/kg, route oral; conditions: in vivo
Mus musculus [16] = experiment: Toxicity in nu/nu mouse assessed as mortality at 5 to 50 mg/kg, po; assay type: organism-based; design: dose 5-50 mg/kg, route oral; conditions: in vivo
[17] = Apparent oral clearance in Swiss Webster mouse at 50 mg/kg, po; assay type: ADME, organism-based; design: dose 50 mg/kg, route oral; conditions: in vivo
[18] = AUC (infinity) in Swiss Webster mouse at 25 mg/kg, po; assay type: ADME, organism-based; design: time infinity, dose 25 mg/kg, route oral; conditions: plasma
[19] = Tmax in Swiss Webster mouse at 50 mg/kg, po; assay type: ADME, organism-based; design: dose 50 mg/kg, route oral; conditions: in vivo
[20] = Apparent volume of distribution with respect to bioavailability in Swiss Webster mouse at 10 mg/kg, po; assay type: ADME, organism-based; conditions: in vivo, read-out: Vc/F
Mus musculus [21] = experiment: Apparent volume of distribution with respect to bioavailability in Swiss Webster mouse at 10 mg/kg, iv; assay type: ADME, organism-based; conditions: in vivo
Mus musculus [22] = experiment: Toxicity in nu/nu mouse assessed as effect on body weight at 5 to 50 mg/kg, po; assay type: organism-based; design: dose 5-50 mg/kg, route oral; conditions: in vivo
[23] = Apparent volume of distribution with respect to bioavailability in Swiss Webster mouse at 50 mg/kg, po; assay type: ADME, organism-based; conditions: in vivo, read-out: Vc/F
[24] = AUC (infinity) in Swiss Webster mouse at 10 mg/kg, iv; assay type: ADME, organism-based; design: time infinity, dose 10 mg/kg, route intravenous; conditions: plasma
[25] = Half life in Swiss Webster mouse at 25 mg/kg, po; assay type: ADME, organism-based; design: dose 25 mg/kg, route oral; conditions: in vivo
[26] = Cmax in Swiss Webster mouse at 10 mg/kg, po; assay type: ADME, organism-based; design: dose 10 mg/kg, route oral; conditions: in vivo
[27] = Clearance in Swiss Webster mouse at 10 mg/kg, iv; conditions: in vivo
[28] = AUC (infinity) in Swiss Webster mouse at 10 mg/kg, po; assay type: ADME, organism-based; design: time infinity, dose 10 mg/kg, route oral; conditions: plasma
[29] = Cmax in Swiss Webster mouse at 50 mg/kg, po; assay type: ADME, organism-based; design: dose 50 mg/kg, route oral; conditions: in vivo
[30] = Tmax in Swiss Webster mouse at 10 mg/kg, po; assay type: ADME, organism-based; design: dose 10 mg/kg, route oral; conditions: in vivo
[31] = Solubility at pH 4 to […]; assay type: physicochemical; conditions: buffer
[32] = AUC (infinity) in Swiss Webster mouse at 50 mg/kg, po; assay type: ADME, organism-based; design: time infinity, dose 50 mg/kg, route oral; conditions: plasma
[33] = Cmax in Swiss Webster mouse at 25 mg/kg, po; assay type: ADME, organism-based; design: dose 25 mg/kg, route oral; conditions: in vivo
[34] = Half life in Swiss Webster mouse at 10 mg/kg, po; assay type: ADME, organism-based; design: dose 10 mg/kg, route oral; conditions: in vivo
[35] = Apparent oral clearance in Swiss Webster mouse at 10 mg/kg, po; assay type: ADME, organism-based; design: dose 10 mg/kg, route oral; conditions: in vivo
[36] = Cmax in Swiss Webster mouse at 10 mg/kg, iv; assay type: ADME, organism-based; design: dose 10 mg/kg, route intravenous; conditions: in vivo
[37] = Apparent oral clearance in Swiss Webster mouse at 25 mg/kg, po; assay type: ADME, organism-based; design: dose 25 mg/kg, route oral; conditions: in vivo
[38] = Oral bioavailability in mouse; assay type: ADME, organism-based; conditions: in vivo
Liver microsomes = experiment: Metabolic stability in human liver microsomes at 1 uM after 1 hr; assay type: ADME, Microsome
[39] = Solubility of the compound; assay type: physicochemical
[40] = Metabolic stability in human liver S9 fraction assessed as drug remaining at 1 uM after 1 hr; assay type: ADME, subcellular; conditions: read-out: Stability
[41] = Aqueous solubility in phosphate-buffered saline at pH 7.4; assay type: physicochemical

SMILES: Cc1cn(-c2ccc(C(N)=O)c(N[C@H]3CC[C@H](O)CC3)c2)c2c1C(=O)CC(C)(C)C2
IC50 (MDA-MB-231): 10 nM
IC50 (SK-MEL-5): 7 nM
IC50 (K562): 3 nM
IC50 (Heat shock protein HSP90 [1]): 7 nM
IC50 (A-375): 9 nM
IC50 (NCI-H460): 248 nM
Kd [2]: 27 nM
IC50 (SW-620): 6 nM
IC50 (MCF7): 10 nM
IC50 (HCT-15): 61 nM
IC50 (PC-3): 14 nM
bioavailability [3]: 10%
IC50 (HT-29 [4]): 7 nM
IC50 (Heat shock protein HSP90 [5]): 16 nM
IC50 (Heat shock protein HSP90 [6]): 14 nM
IC50 (LNCaP): 4 nM
IC50 (Heat shock protein HSP90 [7]): 7 nM

SMILES: C=CCNC1=C2C[C@@H](C)C[C@H](OC)[C@H](O)[C@@H](C)/C=C(\C)[C@H](OC(N)=O)[C@@H](OC)/C=C\C=C(/C)C(=O)NC(=CC1=O)C2=O [TANESPIMYCIN]
IC50 (MDA-MB-231): 194 nM
IC50 (SK-MEL-5): 134 nM
IC50 (K562): 126 nM
IC50 (A-375): 1290 nM
IC50 (NCI-H460): 255 nM
Kd [2]: 87 nM
IC50 (SW-620): 328 nM
IC50 (MCF7): 0.3 nM
IC50 (HCT-15): 1490 nM
IC50 (PC-3): 9 nM
IC50 (HT-29 [4]): 0.1 nM
IC50 (LNCaP): 82 nM

SMILES: CC1(C)CC(=O)c2c(C(F)(F)F)nn(-c3ccc(C(N)=O)c(N[C@H]4CC[C@H](OC(=O)CN)CC4)c3)c2C1.CS(=O)(=O)O
Activity (HT-29 [8]): 67%
Tmax [9]: 1 h
Activity (HT-29 [10]): 14%
half-life [11]: 2.6 h
Activity (HT-29 [12]): 43.2 days
IC50 (MDA-MB-231): 38 nM
IC50 (SK-MEL-5): 25 nM
IC50 (K562): 23 nM
Vd/F [13]: 9.59 L/kg
Tmax [14]: 4.98 min
half-life [15]: 3.3 h
Activity (Mus musculus [16]): Non-toxic
CL/F [17]: 33.1 mL/min/kg
IC50 (Heat shock protein HSP90 [1]): 5 nM
IC50 (A-375): 51 nM
IC50 (NCI-H460): 215 nM
AUC(0-inf) [18]: 11000 ng·h/mL
Kd [2]: 41 nM
Tmax [19]: 2 h
Vd/F [20]: 8.93 L/kg
Vc/F (Mus musculus [21]): 7.846 L/kg
IC50 (SW-620): 19 nM
Activity (Mus musculus [22]): Non-toxic
Vd/F [23]: 9.55 L/kg
AUC(0-inf) [24]: 4870 ng·h/mL
IC50 (MCF7): 16 nM
IC50 (HCT-15): 190 nM
IC50 (PC-3): 114 nM
half-life [25]: 2.9 h
Cmax [26]: 747 ng/mL
clearance [27]: 34.2 mL/min/kg
AUC(0-inf) [28]: 3970 ng·h/mL
Cmax [29]: 4020 ng/mL
IC50 (HT-29 [4]): 32 nM
Tmax [30]: 1 h
solubility [31]: 1000 µg/mL
AUC(0-inf) [32]: 25200 ng·h/mL
IC50 (Heat shock protein HSP90 [5]): 11 nM
Cmax [33]: 2150 ng/mL
half-life [34]: 2.5 h
IC50 (Heat shock protein HSP90 [6]): 13 nM
CL/F [35]: 42 mL/min/kg
Cmax [36]: 4460 ng/mL
IC50 (LNCaP): 31 nM
IC50 (Heat shock protein HSP90 [7]): 61 nM
CL/F [37]: 37.9 mL/min/kg

SMILES: CC1(C)CC(=O)c2c(C(F)(F)F)nn(-c3ccc(C(N)=O)c(N[C@H]4CC[C@H](O)CC4)c3)c2C1 [SNX-2112]
bioavailability [38]: 40%
Stability (Liver microsomes): Stable
IC50 (MDA-MB-231): 6 nM
IC50 (SK-MEL-5): 6 nM
IC50 (K562): 6 nM
IC50 (A-375): 23 nM
IC50 (NCI-H460): 18 nM
Kd [2]: 16 nM
solubility [39]: 170 µM (≈ 79 µg/mL)
IC50 (SW-620): 3 nM
IC50 (MCF7): 53 nM
IC50 (HCT-15): 52 nM
IC50 (PC-3): 17 nM
remaining at 1 h, 1 µM [40]: 88%
IC50 (HT-29 [4]): 3 nM
solubility [41]: 6 µM (≈ 2.79 µg/mL)
IC50 (LNCaP): 3 nM

IC50 (Heat shock protein HSP90 [1]): 226 nM
Kd [2]: 63 nM
SMILES: CSCCNc1cc(-n2nc(C)c3c2CC(C)(C)CC3=O)ccc1C(N)=O

IC50 (Heat shock protein HSP90 [1]): 35 nM
Kd [2]: 11 nM
SMILES: CC1(C)CC(=O)c2c(C(F)F)nn(-c3ccc(C(N)=O)c(NC4CCSCC4)c3)c2C1

IC50 (Heat shock protein HSP90 [1]): 50 nM
Kd [2]: 43 nM
SMILES: Cc1nn(-c2ccc(C(N)=O)c(NC3CCOCC3)c2)c2c1C(=O)CC(C)(C)C2
